Assay results published in publication PMC3723589 (Channels, 2010).
Several values for one entry are separate records, joined by “and”; a condition that tells them apart may be missing. Equal values may be shown once. Read-outs that look alike come from different tables or passages of the source.

Legend:
ROMK1 = conditions: cited from earlier work
[1] = quinidine; cited from earlier work
sperm = conditions: cited from earlier work
[2] = target: T1, MC13 (Slo1(1-181):Slo3(171-1121)) (Mus musculus, UniProt O54982); test: Block of MC13; assay type: cell-based
[3] = pK and percent protonation of tertiary amines; assay type: physicochemical; conditions: quinidine at pH 8.5; calculated from pK 8.6
[4] = system: native pH-dependent KSper K+ channel; conditions: 500 μM quinidine; activation at pH 7.5 and +100 mV; cited from earlier work
IRK1 = conditions: read-out: EC50, block of IRK1; cited from earlier work
[5] = target: T1, MC13 (Slo1(1-181):Slo3(171-1121)); assay type: cell-based
mouse Slo1 K+ channels [6] = target: T2, mouse Slo1 K+ channels (Mus musculus, UniProt Q08460); test: Block of Slo1 currents, blocker applied extracellularly to outside-out patches; assay type: cell-based
mouse Slo1 K+ channels [7] = target: T2, mouse Slo1 K+ channels; test: Block of Slo1 currents, blocker applied cytosolically to inside-out patches; assay type: cell-based
[8] = extracellular quinidine, pH 8.5, fit OB-CB (2') 4 params
[9] = intracellular quinidine, pH 8.5, fit OB-CB (2') 4 params
[10] = extracellular quinidine, 300 μM Ca2+, pH 8.5, fit OB-CB (2') 4 params

T1 sequence (O54982 171-1121): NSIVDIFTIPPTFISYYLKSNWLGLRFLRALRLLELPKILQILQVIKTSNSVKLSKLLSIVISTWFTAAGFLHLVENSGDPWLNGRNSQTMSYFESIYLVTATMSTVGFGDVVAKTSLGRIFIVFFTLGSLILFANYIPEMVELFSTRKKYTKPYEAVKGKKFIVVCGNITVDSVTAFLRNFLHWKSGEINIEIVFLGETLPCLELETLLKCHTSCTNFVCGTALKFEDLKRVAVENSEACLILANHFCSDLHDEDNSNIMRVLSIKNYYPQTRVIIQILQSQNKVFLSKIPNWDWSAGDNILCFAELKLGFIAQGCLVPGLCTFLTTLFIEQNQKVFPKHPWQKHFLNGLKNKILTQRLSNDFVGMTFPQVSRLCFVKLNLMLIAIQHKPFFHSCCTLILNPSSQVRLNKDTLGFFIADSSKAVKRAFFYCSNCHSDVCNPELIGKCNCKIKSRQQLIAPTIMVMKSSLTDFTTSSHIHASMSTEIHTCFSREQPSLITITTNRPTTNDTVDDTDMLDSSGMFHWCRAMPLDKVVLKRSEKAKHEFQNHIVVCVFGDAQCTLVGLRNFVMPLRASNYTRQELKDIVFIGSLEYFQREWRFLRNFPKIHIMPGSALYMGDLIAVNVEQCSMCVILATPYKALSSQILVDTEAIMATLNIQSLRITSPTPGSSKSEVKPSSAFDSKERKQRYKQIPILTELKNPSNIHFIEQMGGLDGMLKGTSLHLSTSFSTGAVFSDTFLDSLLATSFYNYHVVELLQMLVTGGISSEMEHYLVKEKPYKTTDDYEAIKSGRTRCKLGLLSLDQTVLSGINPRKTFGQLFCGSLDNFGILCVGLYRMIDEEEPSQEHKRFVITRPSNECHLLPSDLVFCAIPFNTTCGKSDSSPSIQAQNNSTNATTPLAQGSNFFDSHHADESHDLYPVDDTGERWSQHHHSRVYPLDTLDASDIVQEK
T1 sequence (Q08460 66-246 partner): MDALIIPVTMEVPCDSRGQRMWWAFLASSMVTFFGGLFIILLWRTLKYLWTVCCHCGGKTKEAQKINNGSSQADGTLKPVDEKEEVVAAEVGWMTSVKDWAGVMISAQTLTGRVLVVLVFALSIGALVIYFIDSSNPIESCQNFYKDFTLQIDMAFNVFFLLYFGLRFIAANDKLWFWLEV
T2 sequence (Q08460 66-1209 limits assumed): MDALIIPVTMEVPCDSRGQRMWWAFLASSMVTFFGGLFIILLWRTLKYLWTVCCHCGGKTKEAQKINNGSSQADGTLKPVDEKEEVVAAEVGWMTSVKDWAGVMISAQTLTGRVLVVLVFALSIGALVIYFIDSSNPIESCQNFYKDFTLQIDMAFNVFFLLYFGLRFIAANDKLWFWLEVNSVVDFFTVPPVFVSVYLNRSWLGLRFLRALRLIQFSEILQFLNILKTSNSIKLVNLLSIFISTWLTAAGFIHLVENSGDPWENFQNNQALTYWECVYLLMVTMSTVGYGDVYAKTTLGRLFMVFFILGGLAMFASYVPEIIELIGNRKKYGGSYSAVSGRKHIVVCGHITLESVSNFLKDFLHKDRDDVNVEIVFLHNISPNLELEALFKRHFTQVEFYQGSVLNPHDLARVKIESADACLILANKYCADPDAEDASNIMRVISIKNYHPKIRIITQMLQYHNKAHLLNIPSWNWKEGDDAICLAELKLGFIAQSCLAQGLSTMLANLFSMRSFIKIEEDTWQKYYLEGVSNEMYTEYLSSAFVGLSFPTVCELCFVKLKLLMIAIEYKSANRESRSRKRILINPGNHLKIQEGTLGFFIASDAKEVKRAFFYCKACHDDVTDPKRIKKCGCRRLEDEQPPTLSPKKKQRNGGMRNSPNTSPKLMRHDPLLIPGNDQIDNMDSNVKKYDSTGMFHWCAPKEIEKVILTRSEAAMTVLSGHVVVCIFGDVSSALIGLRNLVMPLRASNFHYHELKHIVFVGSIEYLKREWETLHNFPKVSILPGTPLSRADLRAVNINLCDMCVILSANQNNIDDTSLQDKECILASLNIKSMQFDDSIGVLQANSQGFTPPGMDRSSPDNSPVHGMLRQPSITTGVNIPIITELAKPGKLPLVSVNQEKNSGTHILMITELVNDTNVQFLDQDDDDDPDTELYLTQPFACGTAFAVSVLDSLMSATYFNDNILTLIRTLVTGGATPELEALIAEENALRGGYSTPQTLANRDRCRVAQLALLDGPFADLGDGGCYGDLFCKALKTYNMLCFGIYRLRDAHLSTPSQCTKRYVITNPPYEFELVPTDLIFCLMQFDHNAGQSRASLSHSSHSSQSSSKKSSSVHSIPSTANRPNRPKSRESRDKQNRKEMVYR

Structure (SMILES): C=C[C@H]1C[N@@]2CC[C@H]1C[C@@H]2[C@@H](O)c1ccnc2ccc(OC)cc12 [quinidine]
- inhibition of ROMK1 (ROMK1): only moderately inhibited
- pK (one protonatable site) [1]: ~4.2
- pK (second protonatable site, value used) [1]: 8.6
- lowest concentration at which effects on sperm function have been reported (sperm): 20 µM
- quinidine concentration giving strong block of Slo3 ([2]; at potentials near 0 mV, irrespective of the side of application): less than 10 μM
- zc [2, 8]: -0.55 ± 1.5 e
- zo [2, 8]: -0.27 ± 0.02 e
- percent protonated [3]: 55.7% and 55.73%
- block of native KSper K+ channel [4]: strongly block
- EC50 (IRK1): 700 µM
- change in effective Kb(0), pH 8.5 versus pH 8.2 ([5]; cytosolic quinidine, Scheme 2a): approximately 2 fold
- zc [5, 9]: -0.15 ± 0.38 e
- zo [5, 9]: -0.38 ± 0.10 e
- block of MC13 at lower concentrations than block of Slo1 currents ([5]; quinidine, at potentials near 0 mV): ~ 100 fold
- Kb (mouse Slo1 K+ channels [6]): 950 ± 20 µM
- Kd (mouse Slo1 K+ channels [6]; Kbc, extracellular quinidine, 300 μM Ca2+, pH 8.5, fit OB-CB (2') 4 params): 1200 ± 210 µM
- Kd (mouse Slo1 K+ channels [6]; Kbo, extracellular quinidine pH 7.0, 300 μM Ca2+, pH 8.5, fit OB (1a) 2 params): 950 ± 20 µM
- Kd (mouse Slo1 K+ channels [6]; Kbo, extracellular quinidine, 300 μM Ca2+, pH 8.5, fit OB-CB (2') 4 params): 1510 ± 160 µM
- Kd (mouse Slo1 K+ channels [6]; Kbo, extracellular quinidine, 300 μM Ca2+, pH 8.5, fit OB-CB (2a) 2 params): 1490 ± 40 µM
- zo (zδ) (mouse Slo1 K+ channels [6]; extracellular quinidine pH 7.0, 300 μM Ca2+, pH 8.5, fit OB (1a) 2 params): 0.047 ± 0.01 e and 0.05 ± 0.01 e
- zc (mouse Slo1 K+ channels [6]; [10]): 0.66 ± 0.1 e
- zo (mouse Slo1 K+ channels [6]; [10]): 0.06 ± 0.08 e
- Kb (mouse Slo1 K+ channels [7]): 92.8 ± 9.8 µM
- Kd (mouse Slo1 K+ channels [7]): 207 ± 7.4 µM
- effective change in Kb(0), pH 8.5 versus pH 7.0 (mouse Slo1 K+ channels [7]; cytosolic quinidine): 1.56 fold
- zδ (mouse Slo1 K+ channels [7]; cytosolic quinidine, 10 μM Ca2+ at pH 7.0, Eqn. 1 open channel block): 0.11 ± 0.03 e
- zo (mouse Slo1 K+ channels [7]; intracellular quinidine, 300 μM Ca2+, pH 8.5, fit OB-CB (2a) 2 params): 0.28 ± 0.02 e
